Here are results for 65 molecules from PubChem BioAssay AID624395 (The Scripps Research Institute Molecular Screening Center, 2012).

What is called IC50 is the midpoint of a concentration-inhibition curve.

Activity calls are given as the source filed them. No rule for the calls is given here.

For this test, the system named is cell-based VP16 transactivation luciferase luminescence. Description: compounds lowering VP16-driven reporter luminescence – cell-based, counter-screen for NR2E3 agonist project, dose response (AID 624395). Background: A counterscreen serves to expose hits that act by an unwanted route or on another target.
`O=[N+]([O-])c1ccc(O)c2ncccc12`: the IC50 was 6.36 µM.
With `O=c1c(Cl)c(N2CCN(c3ccc(F)cc3)CC2)cnn1C12CC3CC(CC(C3)C1)C2` the figure was 38.2 µM (inactive).
With `CC(C)(C)C(=O)Nc1cc2nn(-c3ccccc3)nc2cc1Cl` the figure was 0.00479 µM; with `Cc1nc2ncnn2c(N2CCN(c3cccc(C(F)(F)F)c3)CC2)c1C`, 6.46 µM; with `Cc1cc2sc3ccc(C#CC4(O)CCCCC4)cc3c(=O)c2cc1C`, 0.00878 µM.
Consider `COc1ccc(S(=O)(=O)N2CCCCC2)cc1NC(=S)Nc1ccccc1`, for which the IC50 was > 39.8 µM (inactive).
With `CCOC(=O)N1CCN(C(=O)c2ccc(S(=O)(=O)Nc3ccc(C)cc3)cc2)CC1` the figure was 8.62 µM; with `O=C(NC(=O)N1CCN(c2cccc(Cl)c2)CC1)c1ccc(Cl)cc1`, 4.17 µM.
Regarding `COc1ccc(OC)c(NC(=O)CSc2nnnn2-c2ccc3c(c2)OCO3)c1`, the IC50 was 3.36 µM.
Consider `CN(C)c1ccc(/C=C/c2cc[n+](C)c3ccccc23)cc1`, for which the IC50 is 6.66 µM.
`OC[C@@H]1CN(Cc2ccc(-c3ccccc3)cc2)C[C@H](n2cnc3c(NCc4ccncc4)ncnc32)O1`: the IC50 is 4.44 µM.
As to `Cc1ccc(S(=O)(=O)N(CC(=O)Nc2ccccc2C(=O)O)c2cccc(Cl)c2C)cc1`, the IC50 was 18.8 µM (inactive).
`CC(C)c1ccc(-c2csc(NC(=O)c3cccs3)c2C(=O)O)cc1`: the IC50 is 12.1 µM (inactive).
For `C=CCn1c(C)cc(C(=O)CN2C(=O)c3ccccc3S2(=O)=O)c1C`, the IC50 was 2.31 µM.
The value for `Cc1cc(NC(=O)CSc2nc3c(sc4ccccc43)c(=O)n2CCCN2CCOCC2)n[nH]1` was > 39.8 µM (inactive).
Take `c1ccc(-c2cc(CSc3nc4ccccc4[nH]3)on2)cc1`: the IC50 was 2.69 µM.
In the case of `COc1cc2nc(CN3CC=C(c4ccccc4)CC3)[nH]c(=O)c2cc1OC`, the IC50 was 1.91 µM.
With `NC1=C(Br)C(=O)c2ncccc2C1=O` the figure was 2.51 µM.
Regarding `Cc1nn(Cc2cccc(F)c2)c(C)c1NC(=O)c1ccc(COc2ccccc2Cl)cc1`, the IC50 is 11.7 µM (inactive).
With `O=C1c2ccccc2C(=O)c2[nH]c(=O)[nH]c21` the figure was 4.74 µM; with `O=C(OCCOc1ccc(Cl)cc1)c1cc(S(=O)(=O)N2CCCCC2)ccc1N1CCOCC1`, 8.66 µM.
As to `N#C/C(=N\Nc1ccc(Cl)c(Cl)c1)C(=O)C1CC1`, the IC50 is 1.04 µM.
As to `Cc1onc(-c2ccccc2Cl)c1C(=O)Nc1nc2c(s1)CCCC2`, the IC50 was > 39.8 µM (inactive).
For `O=C(CSc1nnnn1-c1ccc2c(c1)OCCO2)Nc1nc2c(s1)CCCC2`, the IC50 is > 39.8 µM (inactive).
In the case of `Clc1cc2cccnc2c2ncccc12`, the IC50 was 12.1 µM (inactive).
With `CN(C)c1ncnc2c1ccn2C1OC(CO)C(O)C1O` (stereo not given) the figure was 0.53 µM; with `Cc1cc(C(=O)CSc2nc3ccccc3[nH]2)c(C)n1CC1CCCO1` (stereo not given), 7.32 µM.
With `COc1ccc(C(=O)c2c(C(F)(F)F)oc3c2C(=O)c2ccccc2C3=O)cc1OC` the figure was 1.68 µM; with `O=C(OC12CC3CC(CC(C3)C1)C2)c1ccc(NCc2cc(O)ccc2O)cc1`, 11.6 µM (inactive); with `COc1ccc(C)cc1NC(=O)NC1CC(=O)N(c2ccc3c(c2)OCCO3)C1` (stereo not given), 20.3 µM (inactive).
As to `Cc1sc(NC(=O)/C=C/c2ccc3c(c2)OCO3)nc1-c1ccccc1`, the IC50 is 7.11 µM.
With `CN(CC(=O)Nc1ccccc1Cl)C(=O)c1cccc(S(=O)(=O)N2CCN(c3ccc(F)cc3)CC2)c1` the figure was 4.59 µM; with `CCC(Sc1nc(C)cc(=O)[nH]1)C(=O)Nc1sc2c(c1C#N)CCCC2` (stereo not given), 5.06 µM.
The value for `Cc1ccc(CN2CC(C(=O)Nc3ncc(C)s3)CC2=O)cc1` (stereo not given) was > 39.8 µM (inactive); that for `COc1ccc(-n2c(C)cc(C(=O)COC(=O)c3ccc(O)cc3O)c2C)cc1` was 4.48 µM; that for `c1ccc(CNc2ncnc3sccc23)cc1` was 4.71 µM.
With `CC(=O)c1c(C)[nH]c(C(=O)OCC(=O)c2ccc(Br)cc2)c1C`, the IC50 was 3.45 µM.
Consider `CC[C@@]1(O)C(=O)OCc2c1cc1n(c2=O)Cc2cc3c(N)cccc3nc2-1`, for which the IC50 was 1.99 µM.
As for `O=[N+]([O-])c1cc(C(F)(F)F)cc([N+](=O)[O-])c1NCCNC(=S)Nc1ccc(Cl)c(Cl)c1`, the IC50 was 11.5 µM (inactive).
`O=C(Nc1nnc(-c2cccs2)o1)c1cc(-c2ccccc2)nc2ccccc12`: the IC50 was 3.45 µM.
Take `COc1cc2c(oc(=O)c3cc(C)cc(OC)c32)c2c(C3OC(C)C(O)C(C)(O)C3O)ccc(O)c12` (stereo not given): the IC50 is 7.6 µM.
On to `O=C1N/C(=C\c2ccc(O)cc2)C(O)=C1C=NCc1ccccc1`, for which the IC50 was > 39.8 µM (inactive).
As for `N#C/C(=C\c1ccc(Sc2nc3ccccc3[nH]2)o1)c1ccccc1`, the IC50 was 4.65 µM.
Consider `C#Cc1cccc(Nc2nc(NCc3ccccc3)nc3ccsc23)c1`, for which the IC50 was 12.8 µM (inactive).
Take `COc1ccc(NC(=O)c2sc(=O)n(Cc3cccc(C(F)(F)F)c3)c2C)cc1OC`: the IC50 is 35.6 µM (inactive).
Turning to `Cc1ccc(NC(=O)CNC(=O)c2cccc(C)c2)nc1`, the IC50 is 26 µM (inactive).
In the case of `CC(C)c1ccc(C(c2c(O)c3ccccc3oc2=O)c2c(O)c3ccccc3oc2=O)cc1`, the IC50 was 10.3 µM (inactive).
Turning to `O=C(OC(c1ccccc1)c1nccc2ccccc12)c1ccccc1` (stereo not given), the IC50 was 0.242 µM.
In the case of `CCOC(=O)Cc1nnc2c(Nc3ccccc3F)nc3nonc3n12`, the IC50 was 4.03 µM.
Consider `Cc1ccc(S(=O)(=O)N2[C@@H](c3ccc(Br)cc3)C(C(=O)O)=CC[C@H]2c2ccc(Cl)c(Cl)c2)cc1`, for which the IC50 is 7.28 µM.
With `O=C(C1CCC(CNS(=O)(=O)c2cccc3nsnc23)CC1)N1CC=C(c2ccccc2)CC1` (stereo not given), the IC50 is 6.86 µM.
For `Brc1ccc(N/N=C(/N=Nc2nn[nH]n2)c2ccccc2)cc1`, the IC50 is 12.8 µM (inactive).
Take `O=S(=O)(/C=C/C=C/S(=O)(=O)c1ccccc1)c1ccccc1`: the IC50 was 11.7 µM (inactive).
With `COc1cccc2c1C(=O)c1c(O)c3c(c(O)c1C2=O)CC(O)(C(C)=O)CC3OC1CC(N(C)C)C(O)C(C)O1` (stereo not given) the figure was 3.21 µM.
Regarding `Cc1ccc(NC(=S)/C(C#N)=C2/Nc3ccccc3S2)cc1`, the IC50 was 2.76 µM.
`CN1C2CCC1/C(=C/c1ccccn1)C(=O)/C2=C\c1ccccn1`: the IC50 was 4.5 µM.
Turning to `N=C1SCC(=O)N1c1ncc(Cc2ccccc2Cl)s1`, the IC50 was 10.5 µM (inactive).
For the molecule `CC(=O)N1c2ccc(S(=O)(=O)N3CCC(C(=O)Nc4cccc(Cl)c4)CC3)cc2CC1C` (stereo not given), the IC50 was 6.45 µM.
As to `O=C(Nc1cccc(OC(F)(F)F)c1)C1Cc2c(-c3ccc4c(c3)OCO4)ccnc2O1` (stereo not given), the IC50 was 14.4 µM (inactive).
`CCc1ccccc1Nc1nn2c(=O)c3ccc(C(=O)NCc4ccccn4)cc3nc2s1`: the IC50 was > 13.3 µM (inactive).
With `CC1CCC/C=C/C2CC(O)CC2C(O)/C=C/C(=O)O1` (stereo not given) the figure was 1.28 µM.
For `COCc1nnc(NC(=O)c2ccc(S(=O)(=O)N(CC(C)C)CC(C)C)cc2)o1`, the IC50 is 6.62 µM.
As for `Cc1ccc(S(=O)(=O)c2ccc([N+](=O)[O-])o2)cc1`, the IC50 was 6.32 µM.
The value for `Cc1c(C(=O)Nc2ccc(Oc3ccccc3)cc2)sc2nc3n(c(=O)c12)CCC3` was 5.11 µM; that for `Cc1cnc(NC(=O)C2CC(=O)N(c3cccc(Cl)c3)C2)s1` (stereo not given) was 1.05 µM.
